Laboratory results as given in BindingDB's records for doi:10.1016/j.vascn.2014.07.002 (University of Oxford, 2014).

Experiments:
[1] = Inhibition of rapid delayed inward rectifying potassium current (IKr) measured using manual patch clamp assay
[2] = molecular target: Potassium voltage-gated channel subfamily H member 2 (Homo sapiens, UniProt Q12809); test: Inhibition of rapid delayed inward rectifying potassium current (IKr) measured using manual patch clamp assay
Potassium voltage-gated channel subfamily H member 2, sequence (Q12809 whole entry): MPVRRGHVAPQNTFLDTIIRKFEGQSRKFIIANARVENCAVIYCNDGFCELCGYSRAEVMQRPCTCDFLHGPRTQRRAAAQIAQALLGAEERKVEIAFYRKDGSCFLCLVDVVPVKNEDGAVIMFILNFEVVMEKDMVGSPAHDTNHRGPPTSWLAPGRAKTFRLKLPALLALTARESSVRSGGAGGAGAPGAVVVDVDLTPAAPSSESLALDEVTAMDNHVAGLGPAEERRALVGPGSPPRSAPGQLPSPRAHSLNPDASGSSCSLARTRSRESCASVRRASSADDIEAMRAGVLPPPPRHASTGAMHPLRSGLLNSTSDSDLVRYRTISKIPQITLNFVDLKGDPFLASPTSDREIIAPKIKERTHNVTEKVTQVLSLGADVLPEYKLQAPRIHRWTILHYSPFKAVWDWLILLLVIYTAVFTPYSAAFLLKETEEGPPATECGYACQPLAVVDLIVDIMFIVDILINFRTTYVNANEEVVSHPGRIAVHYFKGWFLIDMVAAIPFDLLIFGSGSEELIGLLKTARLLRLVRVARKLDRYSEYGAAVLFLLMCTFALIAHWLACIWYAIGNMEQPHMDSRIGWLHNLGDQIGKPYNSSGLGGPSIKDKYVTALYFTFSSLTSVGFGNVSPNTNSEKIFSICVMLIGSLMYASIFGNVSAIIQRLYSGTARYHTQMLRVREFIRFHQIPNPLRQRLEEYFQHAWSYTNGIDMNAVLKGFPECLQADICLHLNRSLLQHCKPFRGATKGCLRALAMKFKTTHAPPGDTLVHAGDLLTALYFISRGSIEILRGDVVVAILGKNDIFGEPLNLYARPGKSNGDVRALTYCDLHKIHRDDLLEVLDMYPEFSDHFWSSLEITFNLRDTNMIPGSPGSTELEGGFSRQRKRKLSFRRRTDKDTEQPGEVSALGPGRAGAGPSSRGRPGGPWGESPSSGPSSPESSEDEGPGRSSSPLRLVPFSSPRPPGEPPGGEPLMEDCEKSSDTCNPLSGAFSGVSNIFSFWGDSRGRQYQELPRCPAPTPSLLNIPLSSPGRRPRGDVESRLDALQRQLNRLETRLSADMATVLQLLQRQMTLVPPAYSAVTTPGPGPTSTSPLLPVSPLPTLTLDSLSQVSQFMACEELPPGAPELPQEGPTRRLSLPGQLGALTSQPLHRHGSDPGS

SMILES: C[C@H]1CN(C[C@H](Cc2ccccc2)C(=O)NCC(=O)O)CC[C@@]1(C)c1cccc(O)c1 [ADL 8-2698]
- IC50 [1]: 794 µM

SMILES: O=C(O)c1ccc(-n2nc(-c3ccccc3O)nc2-c2ccccc2O)cc1 [CHEBI:49005]
- IC50 [2]: 3980 µM
